What was measured:
Coxsackievirus B4 = assay: Antiviral activity against Human coxsackievirus B4 Powers infected in African green monkey Vero cells assessed as decrease in virus titer after 72 hrs by MTT assay; format: functional, organism-based; details: Enterovirus B
[1] = Selectivity index, ratio of CTD50 for African green monkey Vero cells to EC50 for Human coxsackievirus B4 Powers; format: toxicity, cell-based
Influenza A virus = assay: Antiviral activity against Influenza A virus (A/Puerto Rico/8/1934(H1N1)) infected in MDCK cells assessed as decrease in virus titer after 48 hrs by MTT assay; format: functional, organism-based
[2] = Cytotoxicity against MDCK cells assessed as cell viability after 48 hrs by MTT assay; format: cell-based, Canis lupus familiaris; details: dog, read-out: CTD50
[3] = Selectivity index, ratio of CTD50 for MDCK cells to EC50 for Influenza A virus (A/Puerto Rico/8/1934(H1N1)); format: toxicity, cell-based; details: dog
[4] = Cytotoxicity against African green monkey Vero cells assessed as cell viability after 72 hrs by MTT assay; format: cell-based; details: chlorocebus sabaeus, read-out: CTD50

| SMILES | EC50 (Coxsackievirus B4) | selectivity ratio [1] | EC50 (Influenza A virus) | CC50 at 48 h [2] | selectivity ratio [3] | CC50 at 72 h [4] |
| --- | --- | --- | --- | --- | --- | --- |
| Nc1ncnc2c1ncn2[C@H]1C[C@H]2[C@H](CO)[C@@H]1C[C@@H]2Cl | > 112 µM | 3 | 8 µM | > 1120 µM | > 150 | 332 µM |
| CN(C)c1ncnc2c1ncn2[C@H]1C[C@H]2[C@H](CO)[C@@H]1C[C@@H]2Cl | 28 µM | 9 | 112 µM | 929 µM | 8 | 235 µM |
| OC[C@H]1[C@@H]2C[C@H](n3cnc4c(NC5CC5)ncnc43)[C@H]1C[C@@H]2Cl | 17 µM | 15 | 8 µM | 1130 µM | 151 | 247 µM |
| OC[C@H]1[C@@H]2C[C@H](n3cnc4c(NC5CCCC5)ncnc43)[C@H]1C[C@@H]2Cl | > 30 µM | 1 | 15 µM | 529 µM | 36 | 27 µM |
| CCN(CC)CCCNc1ncnc2c1ncn2[C@H]1C[C@H]2[C@H](CO)[C@@H]1C[C@@H]2Cl | > 81 µM | 2 | > 245 µM | 664 µM | < 3 | 137 µM |
| CN1CCN(c2ncnc3c2ncn3[C@H]2C[C@H]3[C@H](CO)[C@@H]2C[C@@H]3Cl)CC1 | > 87 µM | 3 | 25 µM | 1000 µM | 39 | 227 µM |
| OC[C@H]1[C@@H]2C[C@H](n3cnc4c(N5CCOCC5)ncnc43)[C@H]1C[C@@H]2Cl | > 90 µM | 1 | 19 µM | 997 µM | 54 | 97 µM |
| OC[C@H]1[C@@H]2C[C@H](n3cnc4c(NC5CCCCC5)ncnc43)[C@H]1C[C@@H]2Cl | > 11 µM | 1 | 91 µM | 528 µM | 6 | 14 µM |
| CCN(CC)CCNc1ncnc2c1ncn2[C@H]1C[C@H]2[C@H](CO)[C@@H]1C[C@@H]2Cl | > 84 µM | 2 | 20 µM | 731 µM | 36 | 175 µM |
| OC[C@H]1[C@@H]2C[C@H](n3cnc4c(NCCc5ccc(O)cc5)ncnc43)[C@H]1C[C@@H]2Cl | 18 µM | 6 | 48 µM | > 795 µM | > 16 | 108 µM |
| OC[C@@H](Cc1ccccc1)Nc1ncnc2c1ncn2[C@H]1C[C@H]2[C@H](CO)[C@@H]1C[C@@H]2Cl | 1 µM | 141 | 131 µM | 410 µM | 3 | 197 µM |
| OC[C@H]1[C@@H]2C[C@H](n3cnc4c(NCc5cccnc5)ncnc43)[C@H]1C[C@@H]2Cl | > 86 µM | 2 | 122 µM | 554 µM | 5 | 204 µM |
| OC[C@H]1[C@@H]2C[C@H](n3cnc4c(NCc5ccncc5)ncnc43)[C@H]1C[C@@H]2Cl | > 84 µM | 2 | 250 µM | 712 µM | 3 | 166 µM |
| CN1CCN(Nc2ncnc3c2ncn3[C@H]2C[C@H]3[C@H](CO)[C@@H]2C[C@@H]3Cl)CC1 | > 255 µM | 1 | 12 µM | 840 µM | 73 | 255 µM |
| CCN(CC)c1ncnc2c1ncn2[C@H]1C[C@H]2[C@H](CO)[C@@H]1C[C@@H]2Cl | > 94 µM | 2 | 22 µM | 385 µM | 18 | 182 µM |
| OC[C@@H]1[C@@H]2C[C@H](Cl)[C@H]1C[C@@H]2Nc1ncnc2c1ncn2[C@H]1C[C@H]2[C@H](CO)[C@@H]1C[C@@H]2Cl | 61 µM | 3 | 10 µM | > 704 µM | > 73 | 213 µM |
| Cc1cn([C@H]2C[C@H]3[C@H](CO)[C@@H]2C[C@@H]3Cl)c(=O)[nH]c1=O | > 352 µM | 1 | 352 µM | > 1160 µM | > 3 | 57 µM |
| O=c1ccn([C@H]2C[C@H]3[C@H](CO)[C@@H]2C[C@@H]3Cl)c(=O)[nH]1 | > 367 µM | 1 | 64 µM | > 1210 µM | > 19 | 172 µM |

Reference: ChEMBL document CHEMBL3611975, “New carbocyclic N(6)-substituted adenine and pyrimidine nucleoside analogues with a bicyclo[2.2.1]heptane fragment as sugar moiety; synthesis, antiviral, anticancer activity and X-ray crystallography” (Bioorg Med Chem, 2015)
